The results in this text go back to article PMC3119659, “Ligand Activation of the Prokaryotic Pentameric Ligand-Gated Ion Channel ELIC” (PLoS Biology, 2011).

Read-outs that look alike come from different tables or passages of the source. Bounds are passed on as bounds.

Type in all cases: cell-based, Erwinia chrysanthemi
The target in one experiment is T1, ELIC (Dickeya chrysanthemi, UniProt P0C7B7).
T1 construct: expressed in transfected cells; host or cells: Xenopus laevis oocytes (cRNA injection, pTLN vector)
The experiment is described as follows: cell-based. As to conditions: for n (Hill coefficient) / EC50: WT; for EC50: read-out: EC50 of activation of ELIC. The text has this: To identify ligands that activate ELIC we have expressed the protein in Xenopus laevis oocytes and investigated the response to potential agonists by the two-electrode voltage-clamp technique. Based on the volume and chemical properties of the proposed ligand binding region and the presence of positively charged ions bound to this site, we reasoned that parts of the agonists might have a cationic character. […] Our library included different natural products such as amino acids and their derivatives, metabolites, and related synthetic substances (Figure S3A).
Constructs containing the gene of either the WT channel or point mutants preceded by the signal sequence of the chicken α7nAchR were cloned into the pTLN vector for expression in X. laevis oocytes. After linearization of the plasmid DNA by MluI, capped complementary RNA was transcribed with the mMessage mMachine kit (Ambion) and purified with the RNeasy kit (Qiagen). For expression, 1–50 ng of RNA was injected into defolliculated oocytes. Two-electrode voltage clamp measurements were performed one day after injection at 20°C (OC-725B, Warner Instrument Corp.). […] Cysteamine containing solutions were supplemented with 1 mM DTT.

A further experiment concerns the target T2, ELIC R91A (Dickeya chrysanthemi, UniProt P0C7B7, R91A).
T2 construct: expressed in transfected cells; host or cells: Xenopus laevis oocytes (cRNA injection, pTLN vector)
The experiment in a line: Two-electrode voltage clamp of ELIC point mutant R91A in oocytes. The text has this: (§1) To investigate the role of residues surrounding the bound ligand for channel activation, we have mutated single residues to alanine and we have measured activation with the two-electrode voltage-clamp technique (Table 2). For many mutants there was no response to the addition of cysteamine. This was the case for all investigated residues of the principal site, such as Glu77 and Glu131, that may interact with the primary amino group and hydrophobic and aromatic residues (i.e., Phe187, Phe133, Tyr174, Ile79) that surround the aliphatic carbon atoms of the ligand. The effect of mutations on the complementary side, in contrast, was diverse and in some cases less drastic. The mutations of Phe19 on β-1 and Val40 on β-2 shifted the activation towards higher agonist concentrations (Figure 4B).
(§2) Constructs containing the gene of either the WT channel or point mutants preceded by the signal sequence of the chicken α7nAchR were cloned into the pTLN vector for expression in X. laevis oocytes. After linearization of the plasmid DNA by MluI, capped complementary RNA was transcribed with the mMessage mMachine kit (Ambion) and purified with the RNeasy kit (Qiagen). For expression, 1–50 ng of RNA was injected into defolliculated oocytes. Two-electrode voltage clamp measurements were performed one day after injection at 20°C (OC-725B, Warner Instrument Corp.). Currents were recorded in bath solutions containing 10 mM HEPES (pH 7), 130 mM NaCl, and the respective ligands. Cysteamine containing solutions were supplemented with 1 mM DTT.
On the technique in general: In two-electrode clamp one electrode senses voltage and the other passes current.

In another experiment the target is T3, ELIC V40A (Dickeya chrysanthemi, UniProt P0C7B7, V40A).
T3 construct: expressed in transfected cells; host or cells: Xenopus laevis oocytes (cRNA injection, pTLN vector)
The experiment in a line: Two-electrode voltage clamp of ELIC point mutant V40A in oocytes. As to conditions: read-out: EC50 of activation.
Description: as §1, §2

Setting [1] is: ligand added to the extracellular solution, 10 mM, -60 mV, compared with 2 mM cysteamine.
The mark [2] stands for this setting: pH 7.0, two-electrode voltage clamp, -60 mV, fit to Hill equation.
Setting [3] is: pH 7.0, averages and s.d. of six measurements.

T1 sequence (P0C7B7 whole entry): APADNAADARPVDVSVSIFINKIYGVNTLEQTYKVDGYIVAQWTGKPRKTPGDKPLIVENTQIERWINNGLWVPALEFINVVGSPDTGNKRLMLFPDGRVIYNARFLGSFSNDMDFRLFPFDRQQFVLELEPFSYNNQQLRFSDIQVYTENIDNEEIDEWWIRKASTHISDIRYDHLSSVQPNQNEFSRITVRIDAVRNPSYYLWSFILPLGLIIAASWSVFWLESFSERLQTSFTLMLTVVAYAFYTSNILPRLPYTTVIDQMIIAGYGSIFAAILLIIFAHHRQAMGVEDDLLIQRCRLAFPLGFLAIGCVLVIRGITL
T2 sequence (P0C7B7 whole entry R91A): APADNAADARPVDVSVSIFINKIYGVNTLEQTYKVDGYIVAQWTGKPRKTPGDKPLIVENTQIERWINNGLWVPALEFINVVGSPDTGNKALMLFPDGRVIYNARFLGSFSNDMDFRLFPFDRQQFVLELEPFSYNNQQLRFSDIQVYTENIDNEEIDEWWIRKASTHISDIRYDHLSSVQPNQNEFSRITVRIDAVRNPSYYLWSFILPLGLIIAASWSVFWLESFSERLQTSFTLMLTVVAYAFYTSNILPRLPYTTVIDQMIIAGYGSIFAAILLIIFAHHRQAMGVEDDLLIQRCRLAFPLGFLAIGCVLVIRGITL
T3 sequence (P0C7B7 whole entry V40A): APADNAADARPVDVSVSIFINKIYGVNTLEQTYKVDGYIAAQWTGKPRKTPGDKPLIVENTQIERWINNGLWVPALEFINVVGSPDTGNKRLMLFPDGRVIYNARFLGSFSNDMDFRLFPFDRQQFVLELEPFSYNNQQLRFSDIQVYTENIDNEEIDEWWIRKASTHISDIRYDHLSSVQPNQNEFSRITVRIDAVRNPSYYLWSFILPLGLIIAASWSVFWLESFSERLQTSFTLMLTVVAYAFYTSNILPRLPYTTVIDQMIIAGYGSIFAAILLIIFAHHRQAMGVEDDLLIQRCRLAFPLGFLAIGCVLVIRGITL

With `CCCCN` [butylamine], the “activating current response of ELIC to the ligand” value (“activating current response” below) at ELIC (setting [1]) is on record as “weak”.
Broadly, the EC50 is the concentration at which the effect is half-maximal. For the compound `NCCBr` [bromoethylamine], the “n (Hill coefficient)” value at ELIC (pH 7.0) is 3.1. The EC50 at ELIC (setting [2]) came to 885 µM. Also, at ELIC (setting [1]), the “activating current response” value was “opening the channel”. This compound also came in with an Imax/Imax cysteamine at ELIC (setting [3]) of 0.94±0.04.
Take `NCCCCCN` [cadaverine]: the “activating current response” value at ELIC (setting [1]) is “not”.
On the same count and under the same terms, in the case of `CCN` [Ethylamine] it was “activate the channel”.
Take `NCC(=O)O` [glycine]: at ELIC, the “activating current response” value was “absent”.
For aminopropanol, the “n (Hill coefficient)” value amounted to 3.2 at ELIC (pH 7.0) and 2.45 on ELIC R91A (mutant R91A). Moreover, the EC50 at ELIC (setting [2]) is 1200 µM; on ELIC R91A (mutant R91A, read-out: EC50 of activation), 511 µM; at ELIC V40A it was over 10000 µM. Moreover, the “activating current response” value at ELIC (setting [1]) is given as “strong activation”. At ELIC (setting [3]), this compound had an Imax/Imax cysteamine of 1.00±0.014. Moreover, the “fold decrease of the EC50” value at ELIC R91A (mutant R91A compared with WT) was determined as 2 fold.
With `NCCCS` [homocysteamine], the “activating current response” value on ELIC (setting [1]) was “small”.
The same measure, in the same setting: in the case of `CC(C)N` [isopropylamine] it was “weak”.
With `NCCN`, the “n (Hill coefficient)” value at ELIC (pH 8.0) was found to be 3.2. For the same compound, the EC50 at ELIC (pH 8.0, two-electrode voltage clamp, -60 mV) stood at 2000 µM. The “activating current response” value was “activate ELIC” at ELIC (setting [1]) and “already active at neutral conditions” on ELIC (ligand added to the extracellular solution, 10 mM, -60 mV, compared with 2 mM cysteamine, listed as aminoethane). The Imax/Imax cysteamine at ELIC (pH 9.0, averages and s.d. of six measurements) was found to be 1.07±0.06.
